# Test results from US4127687A, “Prevention of fouling of marine structures such as boat hulls” (Rohm and Haas Company, priority 1976, dated 1978).
# How the values were obtained:
# barnacle = test: Membrane Diffusion Raft Trials, barnacle control; type: in vivo, barnacles; settings: membrane test, average 15 to 16 weeks of immersion
# Description: (§1) 1). FIELD TESTS: - Membrane Diffusion Raft Trials
# (§2) A specially constructed raft provides three types
# (§3) a). Waterline Well illuminated, aerated
# (§4) b). Flats Poorly illuminated deeper
# (§5) A known quantity of the test compound is placed into a cylindrical plastic container whose open end is then covered with a membrane of known porosity; the complete unit is attached to the appropriate raft panel so that the poison can freely diffuse into the free water layer around it. Regular inspections, recording time and quantity of settlement, allow a life history of each membrane trial to be constructed. Each raft panel contains 35 compounds to be evaluated together with 4 standard poisons and 1 non-toxic membrane for control.
# (§6) The behavior on the raft can thus be compared with that of the standard poisons and the non-toxic control. At normal loading a membrane over the standard poisons would be free from macro-fouling after six months immersion. Compounds showing selective effects against restricted groups of fouling organisms also show up by membrane testing.
# (§7) After the completion of membrane tests the contents of all containers are checked visually for poison loss. An empty container indicates an unacceptably high solubility for long term effectiveness; where the poison loss is low the compound is tested in one of two ways depending on its performance against fouling.
# (§8) In the membrane tests, the results of approximately 140 compounds evaluated appear in Table 1. The symbols "0" means no detactable effect, the symbol "+" indicates the compound is active against the given fouling organism, and the symbol "++" means that the compound appears to be effective over at least about a four month period for essentially preventing fouling activity by the given organism. In the Table, "weed" designates a grass-like algal growth common in sea water.
# (§9) Membrane Test results are of an average 15 to 16 weeks of immersion,
# (§10) ^a 0 = none, + = some, + + = effective.
# ^f The 1975 Spring settlement of barnacles was very meager and the […]
# Enteromorpha spores = test: Laboratory toxicity test (Lab Bioassay) with Enteromorpha spores; type: in vivo; settings: using Enteromorpha spores
# Description: Standard laboratory toxicity tests use Enteromorpha spores (zoospores or gametes) but Ectocarpus spores and barnacle nauplii may also be used. During the spore tests additional information on the control of bacterial and diatom slimes becomes available since these organisms are unavoidably introduced with the spore inoculum.
# More detailed laboratory toxicity tests on promising compounds determine LD50 values as percentage saturated solution.
# ^c Using Enteromorpha spores.
# weed [1] = test: Membrane Diffusion Raft Trials, weed control; type: in vivo, grass-like algal growth common in sea water; settings: membrane test, average 15 to 16 weeks of immersion
# Description: as §1, §2, §3, §4, §5, §6, §7, §8, §9, §10
# [2] = Amount of toxicant remaining in the test container after membrane diffusion raft tests; type: physicochemical; design: key: 0: empty or trace; +: some; + +: ample; settings: after completion of membrane diffusion raft tests
# Description: as §5, §7
# ^b Amount of toxicants remaining in the test container after the
# completion of the membrane diffusion raft tests: 0 = empty or trace, + =
# [3] = Water solubility by UV spectrophotometric method; type: physicochemical; settings: water, saturated solution; Table 1; read-out: Solubility by UV method
# Protocol: The water solubilities of several isothiazolones were determined by UV spectrophotometric measurements of saturated aqueous solution of each compound in comparison with measurement of solutions of carefully prepared known concentration as outlined in the following example.
# DETERMINATION OF SOLUBILITY OF 5-CHLORO-2-(4-FLUOROPHENYL)-4-METHYL-3-ISOTHIAZOLONE OF EXAMPLE 115
# A sample of 5-chloro-2-(4-fluorophenyl)-4-methyl-3-isothiazolone (0.0406 g., 1.67 × 10^-4 mole) was dissolved in 50 ml. of methanol. A 5 ml. aliquot of the solution was diluted to 1000 ml. with deionized water, providing a solution of 1.67 × 10^-5 moles/liter concentration. An ultraviolet spectrum of this solution was run using a 10 cm. cell. The absorbance (As) at the wave length of maximum absorption (279 nm.) was 1.208. The molar absorptivity, AM, was calculated from the relationship
# where b and c are path length or cell thickness and concentration respectively. Thus, AM was [formula]
# Another sample of the compound (0.3-0.5 g.) was stirred vigorously in 40 ml. of deionized water for approximately 72 hrs. to give a saturated solution. The mixture was filtered through very fine filter paper (Whatman No. 50) to remove all suspended solid. Small portions of the filtrate were diluted with water by various factors until an approximately mid-scale absorbance was obtained upon running an ultraviolet spectrum. Such an absorbance was obtained at a dilution of 10. The absorbance was 0.975 in a 10 cm. cell. Using the value for AM obtained earlier, in the equation
# weed [4] = test: Paint panel / plaque tests against weed (Table 2); type: in vivo, grass-like algal growth common in sea water; design: key: high performance; medium performance; low performance; poor or unacceptable performance; settings: April to November, 1975
# Description: (3) PAINT FORMULATION AND TEST PANEL OR PLAQUE TESTS
# In order to evaluate the compound under practical conditions, weighed quantities of promising compounds are ground in standard volumes of a selected range of paint media and brushed out on plaques for marine immersion.
# The anti-fouling paint formulations used is exemplified by the following: […]
# The most preferred specific compounds were utilized in paints including vinyl chloride-vinyl acetate copolymers, chlorinated rubber, acrylic emulsions, and conventional paints with or without rosin to contain 20% by weight of biocide in the wet film and in some cases (Example 144 and Example 145) with concentrations of 5, 10, and 15% based on the wet film. Each of the compounds is also described in the membrane tests noted above. The paints were applied at normal thicknesses to plaques or panels of 10 centimeters by 10 centimeters which were immersed in various positions as described for the raft noted above. The compounds and results, as against weed, in the season April to November, 1975, are as follows: […]
SMILES,Barnacle Control (barnacle),Lab Bioassay LD50 (Enteromorpha spores),Weed Control (weed [1]),Contents at the end of test (amount of toxicants remaining in the test container) [2],solubility [3],Effectiveness in paint CONV (conventional anti-fouling formulation) (weed [4]),Effectiveness in paint CR (chlorinated rubber) (weed [4]),Effectiveness in paint CR/R (chlorinated rubber/rosin) (weed [4]),Effectiveness in paint EM (acrylic emulsion) (weed [4]),Effectiveness in paint V (polyvinyl chloride-acetate) (weed [4]),Effectiveness in paint V/R (vinyl/rosin) (weed [4])
CCCCCCCCCCCCCCn1sccc1=O [Example 7],0,0.1 percentage saturated solution,0,+ +,–,–,–,–,–,–,–
O=c1ccsn1Cc1ccccc1 [Example 10],0,–,0,0,3000 µg/mL,–,–,–,–,–,–
O=c1ccsn1-c1ccc(Cl)cc1 [Example 12],+,–,+,+,180 µg/mL,–,–,–,–,–,–
CCCCCCn1sc(Cl)cc1=O [Example 15],0,–,0,0,900 µg/mL,–,–,–,–,–,–
CCCCCCCCCCCCCCCCCCn1sc(Cl)cc1=O [Example 26],0,1.0 percentage saturated solution,0,+ +,–,–,–,–,–,–,–
O=c1cc(Cl)sn1C1CCCCC1 [Example 27],+,–,0,+,217 µg/mL,–,–,–,–,–,–
O=c1cc(Cl)sn1CCc1ccccc1 [Example 29],0,–,+ +,0,240 µg/mL,–,–,–,–,–,–
O=c1cc(Cl)sn1-c1ccccc1 [Example 33],+,–,+ +,+,180 µg/mL,–,–,–,–,–,–
O=c1cc(Cl)sn1-c1ccc(Br)cc1 [Example 35],0,0.22 percentage saturated solution,+ +,+ +,–,–,–,–,–,–,–
O=c1cc(Cl)sn1-c1ccc(I)cc1 [Example 36],0,0.08 percentage saturated solution,+ +,+ +,–,–,–,–,–,–,–
CCCCCCCCn1scc(Br)c1=O [Example 48],0,–,0,+,45 µg/mL,–,–,–,–,–,–
CCCCCCCCCCCCn1sc(Cl)c(Cl)c1=O [Example 64],+,–,0,+ +,0.1 to 3 µg/mL,–,–,–,–,–,–
CCCCCCCCCCCCCCn1sc(Cl)c(Cl)c1=O [Example 65],0,–,0,+ +,0.9 µg/mL,–,–,–,–,–,–
CCCCCCCCCCCCCCCCn1sc(Cl)c(Cl)c1=O [Example 66],0,–,0,+ +,0.5 µg/mL,–,–,–,–,–,–
CCCCn1sc(Cl)c(Br)c1=O [Example 86],0,–,+ +,0,1170 µg/mL,–,–,–,–,–,–
CCCCCCn1sc(Cl)c(Br)c1=O [Example 87],+ +,–,+ +,0,85 µg/mL,–,–,–,–,–,–
CCCCCCCCn1sc(Br)c(Br)c1=O [Example 95],0,–,+ +,0,1.7 µg/mL,–,–,–,–,–,–
CCCCCCCCn1sc(Cl)c(C)c1=O [Example 101],+ +,–,+ +,0,38 µg/mL,–,–,–,–,–,–
Cc1c(Cl)sn(C2CCCCC2)c1=O [Example 107],+,–,0,+,350 µg/mL,–,–,–,–,–,–
Cc1c(Cl)sn(Cc2ccccc2)c1=O [Example 109],+,–,+ +,0,100 µg/mL,–,–,–,–,–,–
Cc1c(Cl)sn(Cc2ccc(Cl)cc2)c1=O [Example 110],+,–,+,+ +,34 µg/mL,–,–,–,–,–,–
Cc1c(Cl)sn(-c2ccccc2)c1=O [Example 111],+,–,+ +,+,200 µg/mL,–,–,–,–,–,–
CCCCc1ccc(-n2sc(Cl)c(C)c2=O)cc1 [Example 121],+ +,0.13 percentage saturated solution,+ +,–,–,–,–,–,–,–,–
Cc1c(Cl)sn(-c2ccc(Cl)c(Cl)c2)c1=O [Example 134],0,–,0,+ +,3.5 µg/mL,–,–,–,–,–,–
O=c1c(Cl)c(Cl)sn1CCc1ccccc1 [Example 146],–,–,–,–,–,h,h,h,p,h,h
Cc1c(Cl)sn(-c2ccc(Cl)cc2)c1=O [Example 147],–,–,–,–,–,p,h,h,m,h,h
O=c1c(Cl)c(Cl)sn1Cc1ccccc1 [Example 148],–,–,–,–,–,p,h,h,p,h,h
O=c1c(Cl)c(Cl)sn1Cc1ccc(Cl)cc1 [Example 149],–,–,–,–,–,h,–,h,h,l,h
O=c1c(Cl)c(Cl)sn1-c1ccccc1 [Example 150],–,–,–,–,–,p,p,h,p,m,h
